# Reference: the supplement of paper PMC10307832
# Columns and labels:
# Assay in all cases: relative viability (nuclei count vs DMSO), 5 days (fraction); higher = more cells survive
# 201T = test system: 201T
# Summary of the method: (§1)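 Relative viability is defined as nuclei in treated wells over nuclei in vehicle wells. Duplicate plates were run and medians reported. Lung cancer cell lines in 1536-well plates were dosed by pin tool one day after seeding, with one drug or with a fixed anchor-drug dose plus five library-drug doses (not always all listed) in √10 steps, and nuclei were counted after 5 days.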
# A-427 = test system: A-427
# Summary of the method: as §1
# BEN = test system: BEN
# Summary of the method: as §1
# COR-L23 = test system: COR-L23
# Summary of the method: as §1
# EKVX = test system: EKVX
# Summary of the method: as §1
# HARA = test system: HARA
# Summary of the method: as §1
# HCC-15 = test system: HCC-15
# Summary of the method: as §1
# HCC-44 = test system: HCC-44
# Summary of the method: as §1
# HCC-827 = test system: HCC-827
# Summary of the method: as §1
# NCI-H1437 = test system: NCI-H1437
# Summary of the method: as §1
# NCI-H1650 = test system: NCI-H1650
# Summary of the method: as §1
# NCI-H1666 = test system: NCI-H1666
# Summary of the method: as §1
# NCI-H1792 = test system: NCI-H1792
# Summary of the method: as §1
# NCI-H1975 = test system: NCI-H1975
# Summary of the method: as §1
# NCI-H2342 = test system: NCI-H2342
# Summary of the method: as §1
# NCI-H23 = test system: NCI-H23
# Summary of the method: as §1
# NCI-H358 = test system: NCI-H358
# Summary of the method: as §1
# NCI-H441 = test system: NCI-H441
# Summary of the method: as §1
# NCI-H596 = test system: NCI-H596
# Summary of the method: as §1
# NCI-H650 = test system: NCI-H650
# Summary of the method: as §1
# NCI-H838 = test system: NCI-H838
# Summary of the method: as §1
# SK-MES-1 = test system: SK-MES-1
# Summary of the method: as §1
# SW 900 = test system: SW 900
# Summary of the method: as §1
smiles,measurement,setting,value
O=c1cc(N2CCOCC2)oc2c(-c3cccc4c3sc3ccccc34)cccc12 + CC(=O)Nc1cccc(-n2c(=O)n(C3CC3)c(=O)c3c(Nc4ccc(I)cc4F)n(C)c(=O)c(C)c32)c1 [Trametinib] (partner 0.02 µM),relative viability,201T; first compound 0.01 µM,0.708
same,relative viability,201T; first compound 0.03162 µM,0.683
same,relative viability,201T; first compound 0.1 µM,0.69
same,relative viability,201T; first compound 0.3162 µM,0.721
same,relative viability,201T; first compound 1 µM,0.701
same,relative viability,A-427; first compound 0.01 µM,0.869
same,relative viability,A-427; first compound 0.03162 µM,0.775
same,relative viability,A-427; first compound 0.1 µM,0.747
same,relative viability,A-427; first compound 0.3162 µM,0.812
same,relative viability,A-427; first compound 1 µM,0.695
same,relative viability,BEN; first compound 0.01 µM,1.06
same,relative viability,BEN; first compound 0.03162 µM,1.07
same,relative viability,BEN; first compound 0.1 µM,1.06
same,relative viability,BEN; first compound 0.3162 µM,1.01
same,relative viability,BEN; first compound 1 µM,0.943
same,relative viability,COR-L23; first compound 0.01 µM,0.617
same,relative viability,COR-L23; first compound 0.03162 µM,0.614
same,relative viability,COR-L23; first compound 0.1 µM,0.552
same,relative viability,COR-L23; first compound 0.3162 µM,0.633
same,relative viability,COR-L23; first compound 1 µM,0.655
same,relative viability,EKVX; first compound 0.01 µM,0.299
same,relative viability,EKVX; first compound 0.03162 µM,0.312
same,relative viability,EKVX; first compound 0.1 µM,0.337
same,relative viability,EKVX; first compound 0.3162 µM,0.321
same,relative viability,EKVX; first compound 1 µM,0.303
same,relative viability,HARA; first compound 0.01 µM,0.377
same,relative viability,HARA; first compound 0.03162 µM,0.828
same,relative viability,HARA; first compound 0.1 µM,0.688
same,relative viability,HARA; first compound 0.3162 µM,0.621
same,relative viability,HARA; first compound 1 µM,0.649
same,relative viability,HCC-15; first compound 0.01 µM,0.384
same,relative viability,HCC-15; first compound 0.03162 µM,0.388
same,relative viability,HCC-15; first compound 0.1 µM,0.288
same,relative viability,HCC-15; first compound 0.3162 µM,0.368
same,relative viability,HCC-15; first compound 1 µM,0.364
same,relative viability,HCC-44; first compound 0.01 µM,1.04
same,relative viability,HCC-44; first compound 0.03162 µM,1.06
same,relative viability,HCC-44; first compound 0.1 µM,1.02
same,relative viability,HCC-44; first compound 0.3162 µM,1.04
same,relative viability,HCC-44; first compound 1 µM,1.03
same,relative viability,HCC-827; first compound 0.01 µM,0.528
same,relative viability,HCC-827; first compound 0.03162 µM,0.508
same,relative viability,HCC-827; first compound 0.1 µM,0.547
same,relative viability,HCC-827; first compound 0.3162 µM,0.504
same,relative viability,HCC-827; first compound 1 µM,0.525
same,relative viability,NCI-H1437; first compound 0.01 µM,0.693
same,relative viability,NCI-H1437; first compound 0.03162 µM,0.548
same,relative viability,NCI-H1437; first compound 0.1 µM,0.531
same,relative viability,NCI-H1437; first compound 0.3162 µM,0.508
same,relative viability,NCI-H1437; first compound 1 µM,0.502
same,relative viability,NCI-H1650; first compound 0.01 µM,0.526
same,relative viability,NCI-H1650; first compound 0.03162 µM,0.643
same,relative viability,NCI-H1650; first compound 0.1 µM,0.782
same,relative viability,NCI-H1650; first compound 0.3162 µM,0.571
same,relative viability,NCI-H1650; first compound 1 µM,0.517
same,relative viability,NCI-H1666; first compound 0.01 µM,0.882
same,relative viability,NCI-H1666; first compound 0.03162 µM,0.829
same,relative viability,NCI-H1666; first compound 0.1 µM,0.84
same,relative viability,NCI-H1666; first compound 0.3162 µM,0.814
same,relative viability,NCI-H1666; first compound 1 µM,0.849
same,relative viability,NCI-H1792; first compound 0.01 µM,0.322
same,relative viability,NCI-H1792; first compound 0.03162 µM,0.445
same,relative viability,NCI-H1792; first compound 0.3162 µM,0.383
same,relative viability,NCI-H1792; first compound 1 µM,0.458
same,relative viability,NCI-H1975; first compound 0.01 µM,0.434
same,relative viability,NCI-H1975; first compound 0.03162 µM,0.337
same,relative viability,NCI-H1975; first compound 0.1 µM,0.401
same,relative viability,NCI-H1975; first compound 0.3162 µM,0.361
same,relative viability,NCI-H1975; first compound 1 µM,0.293
same,relative viability,NCI-H2342; first compound 0.01 µM,0.728
same,relative viability,NCI-H2342; first compound 0.03162 µM,0.874
same,relative viability,NCI-H2342; first compound 0.1 µM,0.928
same,relative viability,NCI-H2342; first compound 0.3162 µM,0.962
same,relative viability,NCI-H2342; first compound 1 µM,0.833
same,relative viability,NCI-H23; first compound 0.01 µM,0.351
same,relative viability,NCI-H23; first compound 0.03162 µM,0.375
same,relative viability,NCI-H23; first compound 0.3162 µM,0.359
same,relative viability,NCI-H23; first compound 1 µM,0.347
same,relative viability,NCI-H358; first compound 0.01 µM,0.133
same,relative viability,NCI-H358; first compound 0.03162 µM,0.14
same,relative viability,NCI-H358; first compound 0.1 µM,0.115
same,relative viability,NCI-H358; first compound 0.3162 µM,0.128
same,relative viability,NCI-H358; first compound 1 µM,0.165
same,relative viability,NCI-H441; first compound 0.01 µM,0.513
same,relative viability,NCI-H441; first compound 0.03162 µM,0.431
same,relative viability,NCI-H441; first compound 0.1 µM,0.406
same,relative viability,NCI-H441; first compound 0.3162 µM,0.479
same,relative viability,NCI-H441; first compound 1 µM,0.42
same,relative viability,NCI-H596; first compound 0.01 µM,0.758
same,relative viability,NCI-H596; first compound 0.03162 µM,0.866
same,relative viability,NCI-H596; first compound 0.1 µM,0.831
same,relative viability,NCI-H596; first compound 0.3162 µM,0.711
same,relative viability,NCI-H596; first compound 1 µM,0.717
same,relative viability,NCI-H650; first compound 0.01 µM,1.05
same,relative viability,NCI-H650; first compound 0.03162 µM,1.1
same,relative viability,NCI-H650; first compound 0.3162 µM,0.939
same,relative viability,NCI-H650; first compound 1 µM,1.04
same,relative viability,NCI-H838; first compound 0.01 µM,0.594
same,relative viability,NCI-H838; first compound 0.03162 µM,0.557
same,relative viability,NCI-H838; first compound 0.1 µM,0.481
same,relative viability,NCI-H838; first compound 0.3162 µM,0.469
same,relative viability,NCI-H838; first compound 1 µM,0.442
same,relative viability,SK-MES-1; first compound 0.01 µM,0.546
same,relative viability,SK-MES-1; first compound 0.03162 µM,0.533
same,relative viability,SK-MES-1; first compound 0.1 µM,0.518
same,relative viability,SK-MES-1; first compound 0.3162 µM,0.516
same,relative viability,SK-MES-1; first compound 1 µM,0.48
same,relative viability,SW 900; first compound 0.03162 µM,0.922
same,relative viability,SW 900; first compound 0.1 µM,0.949
same,relative viability,SW 900; first compound 0.3162 µM,0.858
same,relative viability,SW 900; first compound 1 µM,0.82
